How the values were obtained:
Type in all cases: cell-based, Rat
[1] = test system: NADPH oxidase activation (p47-phox, p67-phox); assay: Subcellular fractionation and western blot, translocation of p47-phox and p67-phox; conditions: exposed for 16-32 hr
Protocol: Activation of NADPH oxidase involves translocation of the cytosolic p47-phox and p67-phox subunits into the plasma membrane (Clark et al., 1989, Trans. Assoc. Am. Physicians., 102, 224-230). We examined if treatment with BDNF would activate NADPH oxidase through isolating the cytosol and membrane fraction.
Cortical cell cultures were washed with ice-cold PBS and resuspended in an isotonic buffer containing 10 mM HEPES, pH 8.0, 250 mM sucrose, 1 mM EDTA, 1 mM EGTA, 1 mM dithiothreitol (DTT), 2 mM PMSF, 100 μg/ml leupeptin, and 10 μg/ml pepstatin A. For isolating the cytosol and membrane fraction, the lysate was homogenized with a homogenizer (KONTE, Vieland, N.J.), centrifuged at 9,000 g for 10 min, and the supernatant was then centrifuged at 100,000 g for 1 hr.
The membrane fraction was obtained by resuspending the pellet with 50 μl lysis buffer and the cytosolic fraction was obtained from the supernatant. As shown in <EXAMPLE 7-4>, western blot experiments were performed to analyze protein levels of NADPH oxidase subunits using available antibodies for gp91-phox, p47-phox, and p67-phox.

[2] = test system: p47-phox and p67-phox in cortical cell cultures; assay: Immunocytochemistry of p47-phox and p67-phox; conditions: 32 hr following exposure
Protocol: Immunocytochemistry was performed to identify which types of cells express NADPH oxidase in cortical cell cultures containing neurons and glia.
Cortical cell cultures (DIV 12-14) grown on glass bottom dishes were fixed in 4% paraformaldehyde for 30 min, incubated in 10% horse serum for 1 hr, and double-immunolabeled with a mouse monoclonal antibody against NeuN (1:400 dilution, Chemicon, Temecula, Calif.) and a goat polyclonal antibody against p47-phox or p67-phox (1:200 dilution, Santa Cruz, Santa Cruz, Calif.) for 2-4 hr. Cultures were then reacted with fluorescein isothiocyanate-conjugated anti-goat IgG (1:200 dilution, Organon Teknika Corp., NC) and Texas red-conjugated anti-mouse IgG (1:200, Vector Laboratory, Burlingame, Calif.) for 1-2 hr. The fluorescence images were collected and analyzed with a fluorescence microscopy (Zeiss, Germany) equipped with the Real-14™ precision digital camera (Apogee Instrument, Tucson, Ariz.) and ImagePro Plus Plug-in (Silver Spring, Md.).

[3] = test system: NADPH oxidase subunits gp91-phox, p47-phox, p67-phox; assay: Western blot of NADPH oxidase subunits; conditions: over 16-32 hr exposure
Protocol: Western blot experiments were performed to analyze protein levels of NADPH oxidase subunits using available antibodies for gp91-phox, p47-phox, and p67-phox.
Cortical cell cultures were lysed in a lysis buffer containing 50 mM Tris-HCl (pH 7.5), 1% Nonidet P-40, 150 mM NaCl, 0.5% deoxycholic acid, 0.1% sodium dodecyl sulfate (SDS), 1 mM PMSF (phenylmethylsulfonyl fluoride), 10 μg/ml pepstain A, and 100 μg/ml leupeptin. Cell lysates were centrifuged at 12,000 g for 10 min. approximately 25 μg of protein was subjected to electrophoresis on 12% SDS-polyacrylamide gel and transferred to a nitrocellulose membrane. The blot was incubated in 2.5% bovine serum albumin for 1 hr, incubated with goat polyclonal primary antibodies, anti-gp91-phox, anti-p67-phox, or anti-p47-phox antibodies (1:1000, Santa Cruz, Santa Cruz, Calif.), and then reacted with a biotinylated anti-goat secondary antibody. Immunoreactivity was detected with Vectastain ABC kit (Vector Laboratory, Burlingame, Calif., USA) and luminol for enhanced chemiluminescence Intron, Korea). The signal was analyzed by quantitative densitometry using LAS-1000 systems (Fuji Photofilm Co., Japan).

[4] = test system: Neuron-rich cortical cell cultures; assay: Serum deprivation-induced neuronal apoptosis, counting viable neurons
Protocol: For neuron-glia mixed cultures, 10 μM cytosine arabinoside (Ara C) was included to stop the overgrowth of non-neuronal cells to cultures at DIV 5-7 when glial cells were confluent underneath neurons. After 2 days, cultures were then fed with plating medium lacking fetal serum twice a week. Cultures were maintained at 37° C. in a humidified 5% CO2 incubator. For neuron-rich cultures (>95%), 2.5 μM Ara C was included to cultures at 2-3 days in vitro (DIV 2-3) as previously described (Gwag et al., 1997).
Mixed cortical cell cultures (DIV 12-14) were rinsed in serum free MS (MEM supplemented with 26.5 mM sodium bicarbonate and 21 mM glucose) and then exposed to various concentrations of NGF, BDNF or NT-3 in serum free MS. Neuronal cell death was analyzed by measuring the level of lactate dehydrogenase (LDH) released into the bathing medium. The percent neuronal death was normalized to the mean LDH value released after a sham control (defined as 0%) or continuous exposure to 500 μM NMDA for 24 hr (defined as 100%) The latter produces complete neuronal death within 24 hr. For experiments for serum deprivation, neuron-rich cortical cell cultures (DIV 7) were placed into serum free MS containing 1 μM MK-801 as described (Gwag et al., 1995). Neuronal death was analyzed 24 and 48 hr later by counting viable neurons excluding Trypan Blue satained.
Neuron-rich cortical cell cultures (DIV 7) were deprived of serum, alone (serum deprivation) or in the presence of 100 ng/ml BDNF, 100 ng/ml BDNF plus 3 nM DPI, 3 nM DPI, 100 ng/ml BDNF plus 100 μM trolox, or 100 μM trolox. Neuronal death was assessed 24 hr and 48 hr later by counting viable neurons.

[5] = test system: NADPH oxidase (p22-phox, gp91-phox, p47-phox) mRNA; assay: RT-PCR of NADPH oxidase subunit mRNA
Protocol: RT-PCR experiments were performed to confirm the BDNF-sensitive genes derived from cDNA expression microarray, cytochrome b558 as it constitutes p22-phox and gp91-phox subunits of NADPH oxidase, a pro-oxidant enzyme generating superoxide from oxygen.
Total RNA (1 μg each) was incubated in a reaction mixture containing dNTP (2.5 mM each), RNasin (0.5 Unit), oligo dT primer (100 ng), and MMLV reverse transcriptase (200 Unit) at 37° C. for 1 hr. The samples were incubated at 92° C. for 10 min and transferred to 4° C. The reverse transcribed cDNA was subjected to PCR amplification. PCR was performed according to manufacturer's procedure (Takara Shuzo Co., Japan) sequentially (denaturation-annealing-extension) at following conditions: for p47-phox, 94° C. for 30 S, 55° C. for 30 S, and 72° C. for 60 S (28 cycles); for p22-phox (homologous to cytochrome b558 in microarray) and gp91-phox, 94° C. for 45 S, 60° C. for 60 S, and 72° C. for 120 S (33 cycles); for GAPDH, 94° C. for 35 S, 55° C. for 45 S, and 72° C. for 90 S (25 cycles). Primer sequences used were as follows (5′-3′): for p22-phox, […] (forward) and […] (reverse); for p47-phox, CAGCCA […] (forward) and […] (reverse); for gp91-phox, […] TG (forward) and […] (reverse); for GAPDH, […] (forward) and […] (reverse). PCR products were run on a 1.2% agarose gel and visualized with ethidium bromide. The relative amount of mRNA was measured using LAS-1000 systems (Fuji Photofilm Co., Japan), normalized to levels of GAPDH mRNA. DNA sequencing was performed with Big Dye Terminator Chemistry from Perkin-Elmer Applied Biosystems on ABI PRISM™ 377 DNA sequencer (Foster City, Calif.)

ROS in cortical neurons = assay: ROS imaging by oxidized DCDHF-DA (DCF) and hydroethidine fluorescence
Protocol: Cortical cell cultures (DIV 12-15) grown on glass bottom dishes were loaded with 10 μM dichlorodihydro fluorescein diacetate (DCDHF-DA) or 5 μM hydroethidium (Molecular Probes, Eugene, Oreg.) plus 2% Pluronic F-127 in HEPES-buffered control salt solution (HCSS) buffer containing (in mM): 120 NaCl, 5 KCl, 1.6 MgCl2, 2.3 CaCl2, 15 glucose, 20 HEPES, and 10 NaOH. Cultures were incubated for 20 min at 37° C., and washed three times with HCSS buffer. […] The fluorescence images were analyzed using a QuantiCell 700 system (Applied imaging, UK).
Superoxide production through activation of NADPH oxidase was analyzed by measuring the oxidation of HEt and DCDHF to ethidium and DCF, respectively, in cortical neurons after exposure to a sham operation, 100 ng/ml BDNF, or 100 ng/ml BDNF plus 3 nM DPI for 32 hr (FIG. 15).

mRNA levels of p22-phox and gp91-phox ([5]; 4 hr later, lasted over the next 12 hr): maximally increased
mRNA levels of p47-phox subunit ([5]; from 30 min following administration): increased gradually
mRNA levels of p22-phox and gp91-phox ([5]; within 2 hr after treatment): increase
Substance: BDNF: brain-derived neurotrophic factor, a neurotrophin
Levels of p47-phox and p67-phox in cytosolic and membrane fraction [1]: reduced in the cytosolic fraction and increased in the membrane fraction
Signals of p47-phox and p67-phox (immunoreactivity) [2]: increased exclusively in neurons
Protein levels of NADPH oxidase subunits gp91-phox, p47-phox, and p67-phox [3]: increased
Protective effects of BDNF following serum deprivation ([4]; 100 ng/ml, within 48 hrs): disappeared
Neuronal apoptosis ([4]; serum deprivation, 100 ng/ml BDNF): prevented neuronal apoptosis
Oxidation of HEt and DCDHF (ROS in cortical neurons; 100 ng/ml BDNF for 32 hr): increased oxidation
Fluorescent intensity of DCF in cortical neurons (ROS in cortical neurons; exposed for 16 hr): increased
Intraneuronal levels of ROS ([ROS]i) (ROS in cortical neurons; over 24-32 hr): further increased

— US7608585B2, “Compositions for inhibition of necrosis induced by a neurotrophin” (Neurotech Pharmaceuticals Co., Ltd., priority 2004, dated 2009)
